In patent US20250059264A1, “METHOD OF TREATING STROKE” (AlaMab Therapeutics, Inc., priority 2023, published 2025):

Legend:
[1] = test system: rat model of stroke induced by middle cerebral artery occlusion (MCAO); experiment: Grip strength (Example 3); format: in vivo, SD rats; conditions: 10 mg/kg (table label) i.v. Bid from 30 min after infarction
Description: (§1) The administration of the respective treatments was started 30 minutes after the MCAO procedure of the rats.
(§2) Seventy-two (72) SD rats received behavioral training after adaptive feeding period and before the operation to establish stroke models. The behavioral training included beam-walking, grip and rotarod tests. The experimental rats were then randomly divided into 6 groups according to the body weight, with 12 rats in each test group as described in Table 15.
(§3) The rats were fasted overnight before modeling and were anesthetized with isoflurane. Right middle cerebral artery occlusion (MCAO) was induced in each rat using the intraluminal filament technique to mimic focal cerebral ischemic stroke. After 2 hrs, reperfusion was allowed by removing the occlusion.
(§4) Administration of each treatment was performed 0.5 h after the infarction. The rats were scored by the Longa method at 24-hours post-procedure. The neurological function was evaluated at 24-hr and 48-hr after reperfusion, and was assessed by beam-walking, grip strength, and rotarod tests. At 48 h after reperfusion, the whole brain tissue of all rats was harvested to assess the cerebral infarct area by TTC staining, as well as to measure brain volume and brain water content, two indicators of acute cerebral edema.

[2] = test system: mouse model of stroke induced by middle cerebral artery occlusion (MCAO); experiment: Cerebral infarct volume by TTC staining (Example 1); format: in vivo, ICR mice; conditions: 10 mg/kg i.v. Bid from 30 min after infarction, 48 h after reperfusion
Description: The administration of the respective treatments was started 30 minutes after the MCAO procedure of the mice.
Seventy-two (72) ICR mice received behavioral training after adaptive feeding period and before the operation to establish stroke models. The behavioral training included beam-walking and rotarod test. The experimental mice were then randomly divided into 6 groups according to the values of the body weight, with 12 mice in each test group as described in Table 1.
The mice were fasted overnight before modeling and were anesthetized with isoflurane. Right middle cerebral artery occlusion (MCAO) was induced in mice using the intraluminal filament technique to mimic focal cerebral ischemic stroke. After 1 hr, reperfusion was allowed by removing the occlusion. During the operation, a white light was used to maintain the mouse rectal temperature between 36.5° C.-37.0° C.
Administration of each treatment was performed 0.5 h after the infarction. The neurological function score was evaluated at 24 hrs and 48 hrs after reperfusion, as was assessed by beam-walking, grip strength, and rotarod tests. At 48 h after reperfusion, the whole brain tissue of all rats was harvested to assess the cerebral infarct area by TTC staining, as well as to measure brain volume and brain water content, two indicators of acute cerebral edema.

[3] = test system: mouse model of stroke induced by middle cerebral artery occlusion (MCAO); experiment: Brain water content, time of treatment (Example 2); format: in vivo, ICR mice; conditions: 48 h after reperfusion
Description: The administration of 10 mg/kg butylphthalide and 50 mg/kg ALMB-0166 was started 30 minutes, 2 hours, or 6 hours after the MCAO procedure of the mice. Ninety-six (96) ICR mice received behavioral training after adaptive feeding period and before the operation to establish stroke models. The behavioral training included beam-walking and rotarod test. The experimental mice were then randomly divided into 8 groups according to the values of the body weight, with 12 mice in each test group as described in Table 1. The mice were fasted overnight before modeling and were anesthetized with isoflurane. Right middle cerebral artery occlusion (MCAO) was induced in mice using the intraluminal filament technique to mimic focal cerebral ischemic stroke. After 1 hr, reperfusion was allowed by removing the occlusion. Administration of each treatment was performed 0.5 hrs, 2 hrs, or 6 hrs after the infarction. The neurological function score was evaluated at 24 hrs and 48 hrs after reperfusion, as was assessed by beam-walking, grip strength, and rotarod tests. At 48 hrs after reperfusion, the whole brain tissue of all rats was harvested to assess the cerebral infarct area by TTC staining, as well as to measure brain volume and brain water content, two indicators of acute cerebral edema.

[4] = test system: rat model of stroke induced by middle cerebral artery occlusion (MCAO); experiment: Beam-walking test (Example 3); format: in vivo, SD rats; conditions: 10 mg/kg (table label) i.v. Bid from 30 min after infarction
Description: as §1, §2, §3, §4

[5] = test system: rat model of stroke induced by middle cerebral artery occlusion (MCAO); experiment: Beam-walking test, dosing regimen (Example 4); format: in vivo, SD rats; conditions: 10 mg/kg (table label) i.v. Bid from 30 min after infarction
Description: (§5) The first administration of the respective treatments was started 30 minutes (Day 1 of study) after the MCAO procedure of the rats. For the butylphthalide group, subsequent doses were administered every day after for 14 days. For the ALMB-0166 test groups, a second dose of the antibody was administered at Day 4 post-stroke (Day 4 of the study). Thirty-six (36) SD rats received behavioral training after adaptive feeding period and before the operation to establish stroke models. The behavioral training included beam-walking, grip and rotarod tests. The experimental rats were then randomly divided into 6 groups according to the body weight, with 6 rats in each test group as described in Table 15. The rats were fasted overnight before modeling and were anesthetized with isoflurane. Right middle cerebral artery occlusion (MCAO) was induced in each rat using the intraluminal filament technique to mimic focal cerebral ischemic stroke. After 2 hrs, reperfusion was allowed by removing the occlusion. Administration of butylphthalide was performed 0.5 hrs after the infarction, and every day after the operation (14 days). Administration of ALMB-0166 and the vehicle treatment was performed at 0.5 hrs and at Day 4 after the operation. The body weight of rats was recorded before the operation (Day 0 of study) and on Days 2, 4, 7, and 11 after the procedure. The rats were scored by the Longa method at Day 1 (24-hours) post-procedure. The neurological function was evaluated at Days 1, 2, 4, 7, and 14 after the procedure, and was assessed by beam-walking, grip strength, and rotarod tests. At Day 14 after reperfusion, the whole brain tissue of all rats was harvested to assess the cerebral infarct area by TTC staining. The total infarct volume was determined, and the infarct volume ratio was calculated by dividing the total infarct volume by the whole brain volume. For calculating the infarct volume rate, the difference in infarct volume ratio between the model group and the corresponding administration group was divided by the infarct volume ratio of the model group.

[6] = test system: rat model of stroke induced by middle cerebral artery occlusion (MCAO); experiment: Rotarod test, dosing regimen (Example 4); format: in vivo, SD rats; conditions: 10 mg/kg (table label) i.v. Bid from 30 min after infarction
Description: as §5

[7] = test system: rat model of stroke induced by middle cerebral artery occlusion (MCAO); experiment: Grip strength, dosing regimen (Example 4); format: in vivo, SD rats; conditions: 10 mg/kg (table label) i.v. Bid from 30 min after infarction
Description: as §5

[8] = 10 mg/kg i.v. once 0.5 hr after infarction
[9] = 10 mg/kg i.v. once 2 hr after infarction
[10] = 10 mg/kg i.v. once 6 hr after infarction

SMILES: CCCCC1OC(=O)c2ccccc21 (stereo not drawn) [Butylphthalide]
- Grip Strength ([1]; 24 h): 404.73 g
- Grip Strength ([1]; 48 h): 419.93 g
- Cerebral Infarction Volume [2]: 27.29 ± 13.07 %
- Improvement rate of infarction ([2]; vs model): 43.02%
- Brain water content [3, 8]: 329.00 mg
- Brain water ratio [3, 8]: 81.23%
- Brain water content [3, 9]: 326.33 mg
- Brain water ratio [3, 9]: 81.25%
- Brain water content [3, 10]: 342.83 mg
- Brain water ratio [3, 10]: 82.36%
- Beam-walking time ([4]; 24 h): 38.91 s
- Beam-walking time ([4]; 48 h): 45.80 s
- Beam-walking time ([5]; Day 0): 23.13 s
- Beam-walking time ([5]; Day 2): 28.31 s
- Beam-walking time ([5]; Day 4): 43.23 s
- Beam-walking time ([5]; Day 7): 35.65 s
- Beam-walking time ([5]; Day 14): 16.01 s
- Rotarod test score, Time ([6]; Day 0): 124.5 s
- Rotarod test score, Time ([6]; Day 2): 126.8 s
- Rotarod test score, Time ([6]; Day 4): 122.2 s
- Rotarod test score, Time ([6]; Day 7): 130.7 s
- Rotarod test score, Time ([6]; Day 14): 157.3 s
- Grip Strength ([7]; Day 0): 504.65 g
- Grip Strength ([7]; Day 2): 565.99 g
- Grip Strength ([7]; Day 4): 520.36 g
- Grip Strength ([7]; Day 7): 523.26 g
- Grip Strength ([7]; Day 14): 585.23 g
